Experimental data published in US20220331303A1, “USE OF AN OREXIN 2 RECEPTOR AGONIST FOR THE TREATMENT OF EXCESSIVE SLEEPINESS” (Takeda Pharmaceutical Company Limited, priority 2019, published 2022).

Legend:
Assay type in all cases: in vivo, human
[1] = test system: patients with NT2; experiment: Epworth Sleepiness Scale (ESS) in patients with NT2; set-up: scale not given here; details: Day 7
Description: (§1) The purpose of the study was to evaluate the safety, tolerability, pharmacokinetics and pharmacodynamics of Compound A after multiple days of IV administration in patients with NT2. NT2 patients were evaluated in Cohort C1 and C2 (Table 30). Compound A or placebo were administered via IV infusion over 9 hours once daily for 7 days. A total of 14 patients with NT2 were treated with Compound A or placebo (5, 4, and 5 subjects in the placebo, Compound A 44 mg, and Compound A 112 mg groups, respectively). In this part, potential efficacy of Compound A was evaluated with MWT, ESS, KSS, night-time PSG (NPSG), and PGI-C as an exploratory PD assessment.

[2] = test system: patients with NT2; experiment: KSS in patients with NT2; details: 9 hours postdose
Description: as §1

[3] = test system: patients with NT2; experiment: Safety/tolerability of multiple IV doses in patients with NT2
Description: as §1

[4] = test system: patients with NT2; experiment: MWT in patients with NT2 (Cohorts C1, C2)
Description: as §1
An overview of study schedule and PD testing in NT2 Patients is illustrated in FIG. 9. After screening, patients eligible for these parts had to discontinue any medication for narcolepsy including medications used for EDS or cataplexy. The medications had to be stopped for a minimum of 7 days or at least 5 half-lives of each medication, whichever was longer, before the first day of dosing (Day 1). In all cohorts of these parts, subjects underwent NPSG on Day −2 and baseline MWT sessions 4 times on Day −1 (at around 10:00, 12:00, 14:00, and 16:00). Study drug dosing via IV infusion was started at around 08:00 on Days 1-7. MWT was conducted on Day 1 at around 10:00, 12:00, 14:00, and 16:00. Subjects were allowed to take a nap on the days with no MWT assessment. At night of Day 6, the subjects underwent NPSG once again to evaluate the effect of multiple daytime dosing on night-time sleep structure. On Day 7, the subjects underwent MWT at the same hours as on Day −1. The subjects were discharged from the study site on Day 8.
The MWT is a validated objective measure that evaluates a person's ability to remain awake under soporific conditions for a defined period of time. As there is no biological measure of wakefulness, this was measured indirectly by the inability or delayed tendency to fall asleep. This tendency to fall asleep was measured via EEG-derived sleep latency in MWT.
On Day −1, Day 1 and Day 7, 40-minute session (1 session) of MWTs was performed 4 times (approximately at 10:00, 12:00, 14:00, and 16:00) per day. Sleep latency of each session was recorded. Subjects were required to stay awake during an interval between sessions.

[5] = test system: subjects with obstructive sleep apnea; experiment: KSS in subjects with OSA experiencing EDS despite CPAP
Description: (§2) On Day 1 of Treatment Period 1, all eligible subjects were randomized and received the first dose of study drug. Compound A or placebo was administered as a single 9-hour IV infusion commencing at approximately 08:00. On each dosing day (Study Days 1, 3, and 5), 40-minute MWT sessions were performed at 2, 4, 6, and 8 hours after the start of the infusion. There was a minimum 24-hour washout interval between the end of the infusion and the commencement of treatment in subsequent treatment periods to allow for complete elimination of the preceding treatment effect. The KSS and PVT were collected per the Schedule of Study Procedures. Blood samples for determination of Compound A plasma concentrations were collected predose and at specified time points postdose, Safety assessments were recorded. During the study, AEs were recorded, clinical laboratory tests, vital signs, and safety ECGs were obtained. Study Days 2, 4, and 6 were washout days. Subjects were discharged from the unit following completion of study exit procedures in the afternoon of Study Day 6 (Day 2 of Treatment Period 3). Subjects were contacted by telephone approximately 7 days (±2 days) following unit discharge for a safety check.

[6] = test system: subjects with obstructive sleep apnea; experiment: Safety/tolerability of single dose in subjects with OSA; details: single doses 44 mg and 112 mg, infusion over 9 hours, OSA patients
Description: The purpose of the study was to evaluate the pharmacokinetics (PK), pharmacodynamics (PD), safety and tolerability of a single intravenous (IV) dose of Compound A in adults who have been diagnosed with obstructive sleep apnea (OSA) and who are experiencing excessive daytime sleepiness (EDS) despite adequate use of CPAP. Twenty-five patients were randomized, and 23 patients completed the study. All patients at entry were having EDS despite being adequately controlled by CPAP for their sleep apnea.
as §2, with “The KSS and PVT were collected per the Schedule of Study Procedures.” left out, “Study Days 2, 4, and 6 were washout days. Subjects were discharged from the unit following completion of study exit procedures in the afternoon of Study Day 6 (Day 2 of Treatment Period 3). Subjects were contacted by telephone approximately 7 days (±2 days) following unit discharge for a safety check.” left out

[7] = multiple IV administrations of up to 112 mg, NT2 patients

SMILES: COC(=O)N1CCC[C@H](NS(C)(=O)=O)[C@@H]1CO[C@H]1CC[C@@H](c2ccccc2)CC1 [Compound A, methyl (2R,3S)-3-((methylsulfonyl)amino)-2-(((cis-4-phenylcyclohexyl)oxy)methyl)piperidine-1-carboxylate]
- ESS Change from Baseline Mean ([1]; Compound A 44 mg): −3.8
- ESS Change from Baseline Median ([1]; Compound A 44 mg): −3.5
- ESS Observed Value Mean ([1]; Compound A 44 mg): 13.3
- ESS Observed Value Median ([1]; Compound A 44 mg): 14.0
- Mean ESS score ([1]; Compound A 44 mg): 13.3
- Mean change from baseline in ESS ([1]; Compound A 44 mg): −3.8
- ESS Change from Baseline Mean ([1]; Compound A 112 mg): −12.2
- ESS Change from Baseline Median ([1]; Compound A 112 mg): −13.0
- ESS Observed Value Mean ([1]; Compound A 112 mg): 6.0
- ESS Observed Value Median ([1]; Compound A 112 mg): 4.0
- Mean ESS score ([1]; Compound A 112 mg): 6.0
- Mean change from baseline in ESS ([1]; Compound A 112 mg): −12.2
- Mean change from baseline in KSS ([2]; Compound A 44 mg, Day 1): −0.5
- Mean change from baseline in KSS ([2]; Compound A 44 mg, Day 7): 0.0
- Mean change from baseline in KSS ([2]; Compound A 112 mg, Day 1): −1.0
- Mean change from baseline in KSS ([2]; Compound A 112 mg, Day 7): −0.8
- Number of TEAE related to BP (blood pressure increased) ([3]; Compound A 112 mg group, mild intensity): 1
- SAE / TEAE leading to study drug discontinuation [3, 7]: no SAE, and no TEAE leading to study drug discontinuation
- Safety and tolerability [3, 7]: safe and well tolerated
- Mean change from baseline in average sleep latency in MWT ([4]; Compound A 44 mg, Day 1): 23.88 min
- Mean sleep latency in MWT ([4]; Compound A 44 mg, Day 1): 33.03 min
- Mean change from baseline in average sleep latency in MWT ([4]; Compound A 44 mg, Day 7): 25.79 min
- Mean sleep latency in MWT ([4]; Compound A 44 mg, Day 7): 34.47 min
- Maximum sleep latency achieved in MWT ([4]; Compound A 44 mg, at 2 and 8 hours on Day 1 and at 4 and 8 hours on Day 7): 40 min
- Mean change from baseline in average sleep latency in MWT ([4]; Compound A 112 mg, Day 1): 31.15 min
- Mean sleep latency in MWT ([4]; Compound A 112 mg, Day 1): 38.48 min
- Mean change from baseline in average sleep latency in MWT ([4]; Compound A 112 mg, Day 7): 28.28 min
- Mean sleep latency in MWT ([4]; Compound A 112 mg, Day 7): 35.60 min
- Maximum sleep latency achieved in MWT ([4]; Compound A 112 mg, at 2, 4, and 8 hours both on Day 1 and Day 7): 40 min
- Mean placebo-adjusted decrease in KSS ([5]; Compound A 44 mg): −1.6
- Mean placebo-adjusted decrease in KSS ([5]; Compound A 112 mg): −2.4
- Safety and tolerability [6]: safe and well tolerated
